Reference: ChEMBL document CHEMBL1131437, “Resistance-modifying agents. 5. Synthesis and biological properties of quinazolinone inhibitors of the DNA repair enzyme poly(ADP-ribose) polymerase (PARP)” (J Med Chem, 1998)

biological target: Poly [ADP-ribose] polymerase 1 (Mus musculus, UniProt P11103); test: biochemical
Sequence (P11103 whole entry): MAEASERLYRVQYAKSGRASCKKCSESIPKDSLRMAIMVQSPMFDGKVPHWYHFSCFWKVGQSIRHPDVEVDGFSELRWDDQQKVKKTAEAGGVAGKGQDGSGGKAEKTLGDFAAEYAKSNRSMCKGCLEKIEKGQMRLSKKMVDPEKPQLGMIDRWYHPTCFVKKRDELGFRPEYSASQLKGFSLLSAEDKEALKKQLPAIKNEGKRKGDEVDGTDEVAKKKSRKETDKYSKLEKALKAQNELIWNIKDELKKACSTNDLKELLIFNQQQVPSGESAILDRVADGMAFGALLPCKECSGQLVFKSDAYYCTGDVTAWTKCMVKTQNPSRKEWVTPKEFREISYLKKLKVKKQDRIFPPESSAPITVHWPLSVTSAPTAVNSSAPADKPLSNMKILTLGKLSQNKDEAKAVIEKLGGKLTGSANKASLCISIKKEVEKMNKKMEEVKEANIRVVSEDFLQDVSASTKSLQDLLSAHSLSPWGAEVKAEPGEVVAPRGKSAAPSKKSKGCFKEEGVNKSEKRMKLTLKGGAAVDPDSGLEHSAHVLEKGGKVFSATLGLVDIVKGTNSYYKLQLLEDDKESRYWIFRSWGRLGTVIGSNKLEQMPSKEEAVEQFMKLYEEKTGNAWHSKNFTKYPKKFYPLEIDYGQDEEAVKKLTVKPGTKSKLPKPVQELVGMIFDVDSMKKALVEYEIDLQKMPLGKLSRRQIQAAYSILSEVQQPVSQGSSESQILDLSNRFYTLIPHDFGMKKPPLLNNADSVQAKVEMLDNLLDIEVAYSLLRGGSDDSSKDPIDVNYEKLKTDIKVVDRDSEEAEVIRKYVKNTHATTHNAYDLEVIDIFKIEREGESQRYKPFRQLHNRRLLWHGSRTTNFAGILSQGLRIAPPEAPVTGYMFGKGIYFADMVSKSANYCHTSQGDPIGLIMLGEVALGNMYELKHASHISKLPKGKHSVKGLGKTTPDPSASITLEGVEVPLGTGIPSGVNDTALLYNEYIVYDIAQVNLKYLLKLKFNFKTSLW
Description: Inhibition of the DNA repair Poly (ADP-ribose) polymerase 1, in permeabilised L1210 murine leukemia cells

Row | SMILES | IC50 [nM]
1 | Cc1cccc2c(O)nc(-c3ccc(C#N)cc3)nc12 | 270
2 | COc1cccc2c(O)nc(-c3ccc(C(F)(F)F)cc3)nc12 | 39000
3 | Nc1ccc(-c2nc(O)c3cccc(O)c3n2)cc1 | 320
4 | COc1ccc(-c2nc3c(C)cccc3c(=O)[nH]2)cc1 | 190
5 | COc1cccc2c(=O)[nH]c(-c3ccc(N=[N+]=[N-])cc3)nc12 | 1930
6 | COc1cccc2c(O)nc(-c3ccc(N)cc3)nc12 | > 300
7 | COc1cccc2c(O)nc(-c3ccc(C#N)cc3)nc12 | 1340
8 | Cc1cccc2c(O)nc(-c3ccc(C(F)(F)F)cc3)nc12 | > 10000

The next lines start with the values.

Row | IC50 [nM] | SMILES
9 | 870 | Cc1cccc2c(=O)[nH]c(-c3ccccc3)nc12
10 | 850 | COc1cccc2c(O)nc(-c3ccc([N+](=O)[O-])cc3)nc12
11 | 220 | Cc1cccc2c(=O)[nH]c(-c3ccc(O)cc3)nc12
12 | > 100000 | COc1cccc2c(=O)n(C)c(C)nc12
13 | 390 | Cc1nc(O)c2cccc(C)c2n1
14 | > 100000 | Cc1nc2c(O)cccc2c(=O)n1C
15 | 440 | Cc1cccc2c(O)nc(-c3ccc(N)cc3)nc12
16 | 19100 | NC(=O)c1cccc(N)c1 [3-AMINOBENZAMIDE]
